The source of these data is US6204294A, “IL-8 receptor antagonists” (SmithKline Beecham Corporation, priority 1999, dated 2001).

The test system of this assay is recombinant human IL-8 type β receptor (IL-8Rβ, Type II, permissive receptor). Put plainly: Receptor binding assay, permissive model (IL-8b), [125I]IL-8 on CHO membranes. Conditions: recombinant IL-8Rβ CHO membranes; compound without an ionizable proton in the 2-position. An excerpt:
[^125 I]IL-8 (human recombinant) was obtained from Amersham Corp., Arlington Heights, Ill., with specific activity 2000 Ci/mmol. Gro-α was obtained from NEN- New England Nuclear. All other chemicals were of analytical grade. High levels of recombinant human IL-8 type α and β receptors were individually expressed in Chinese hamster ovary cells as described previously (Holmes, et al., Science, 1991, 253, 1278). The Chinese hamster ovary membranes were homogenized according to a previously described protocol (Haour, et al., J Biol Chem., 249 pp 2195-2205 (1974)). Except that the homogenization buffer was changed to 10mM Tris-HCL, 1mM MgS04, 0.5mM EDTA (ethylene-diaminetetra-acetic acid), 1mMPMSF (α-toluenesulphonyl fluoride), 0.5 mg/L Leupeptin, pH 7.5. Membrane protein concentration was determined using Pierce Co. micro-assay kit using bovine serum albumin as a standard. All assays were performed in a 96-well micro plate format. Each reaction mixture contained ^125 I IL-8 (0.25 nM) or ^125 I Gro-α and 0.5 μg/mL of IL-8Rα or 1.0 μg/mL of IL-8Rβ membranes in 20 mM Bis-Trispropane and 0.4 mM Tris HCl buffers, pH 8.0, containing 1.2 mM MgSO4, 0.1 mM EDTA, 25 mM NaCl and 0.03% CHAPS. […] The filter was then dried and counted on the Betaplate liquid scintillation counter. […]

As for `C=CCOc1cc(C#N)ccc1NC(=NC#N)Nc1ccccc1Br` [N-(2-Allyloxy-4-cyano-phenyl)-N'-(2-bromophenyl)-N"-cyanoguanidine], the “activity in the permissive model (IL-8b) IL-8 receptor inhibition assay, result in words” value is “inactive”.
